“And” between values parts separate entries of the source, which are not always exact repeats. Identical values can stand only once.
Details: Liquid, Closed cell (Static) method

C[CH2][Sb]([CH2]C)[CH2]C [triethylstibine]
Details | vapor or sublimation pressure
238.42 K | 0.0037 kPa
243.46 K | 0.00611 kPa and 0.0061 kPa
248.47 K | 0.00991 kPa and 0.00989 kPa and 0.0099 kPa
253.48 K | 0.01569 kPa
258.48 K | 0.02451 kPa and 0.02448 kPa and 0.02449 kPa
263.48 K | 0.03735 kPa and 0.03734 kPa and 0.03733 kPa
268.48 K | 0.0557 kPa and 0.05561 kPa and 0.0556 kPa
273.68 K | 0.08268 kPa [middle of 4 runs]
278.49 K | 0.1181 kPa and 0.118 kPa
283.49 K | 0.1676 kPa
285.99 K | 0.1995 kPa
288.49 K | 0.2362 kPa and 0.2363 kPa
290.99 K | 0.2791 kPa and 0.279 kPa
293.49 K | 0.3288 kPa and 0.3282 kPa and 0.3281 kPa
295.99 K | 0.3849 kPa and 0.385 kPa
298.49 K | 0.4505 kPa and 0.4504 kPa and 0.4503 kPa
301 K | 0.5246 kPa

Source: the NIST ThermoML archive (doi:10.1016/j.jct.2005.05.018)
